The record followed here is ChEMBL document CHEMBL6109039, “Designed and synthesized novel tripeptides targeting diabetes and its related pathologies” (Eur J Med Chem, 2025).

The source made the active and inactive calls. The calls are words filed in the database; no cut-off is given here. Residues, ends and D or L forms follow the SMILES beside them.

The test system of series [1] is Mus musculus. Put plainly: Antidiabetic activity in STZ induced male Balb/c mouse model assessed as ordered nephron cells with glomeruli at 63.81 ug/kg, ip treated for 21 days. In kind it is functional, organism-based. As to conditions: dose 63.81 µg/kg, time 21.0 day.
Series [2] has as its system Mus musculus. Put plainly: Antidiabetic activity in STZ induced male Balb/c mouse model assessed as reduction in bowman's space at 63.81 ug/kg, ip treated for 21 days. In kind it is functional, organism-based. As to conditions: dose 63.81 µg/kg, time 21.0 day.
Series [3] relates to Mus musculus. Put plainly: Antidiabetic activity in STZ induced male Balb/c mouse model assessed as reduction in glomerulus diameter at 63.81 ug/kg, ip treated for 21 days. In kind it is functional, organism-based. The conditions noted are these: dose 63.81 µg/kg, time 21.0 day.
In series [4] the test system is Mus musculus. Put plainly: Antidiabetic activity in STZ induced male Balb/c mouse model assessed as appearance of tubule epithelium at 63.81 ug/kg, ip treated for 21 days. As to conditions: dose 63.81 µg/kg, time 21.0 day. In kind it is functional, organism-based.
In series [5] the target is T1, Pancreatic alpha-amylase (Sus scrofa) (UniProt P00690).
T1 sequence (whole entry): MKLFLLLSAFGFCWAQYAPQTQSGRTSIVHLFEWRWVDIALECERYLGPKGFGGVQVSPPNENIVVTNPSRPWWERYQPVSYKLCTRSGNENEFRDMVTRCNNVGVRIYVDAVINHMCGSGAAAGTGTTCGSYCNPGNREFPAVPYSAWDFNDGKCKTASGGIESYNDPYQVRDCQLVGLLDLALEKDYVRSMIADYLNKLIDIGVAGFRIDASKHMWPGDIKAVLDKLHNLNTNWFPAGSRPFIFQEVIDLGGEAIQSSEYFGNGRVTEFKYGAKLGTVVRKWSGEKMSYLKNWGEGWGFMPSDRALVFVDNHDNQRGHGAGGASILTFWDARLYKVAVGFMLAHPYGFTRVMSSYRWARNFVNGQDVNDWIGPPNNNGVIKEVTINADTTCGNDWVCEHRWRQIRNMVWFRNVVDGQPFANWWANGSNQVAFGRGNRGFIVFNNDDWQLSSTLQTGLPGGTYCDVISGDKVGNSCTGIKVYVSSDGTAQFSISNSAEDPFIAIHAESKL
Put plainly: Mixed type inhibition of porcine pancreatic Alpha-amylase using starch as substrate pre-incubated for 20 mins followed by substrate addition and measured after 15 mins by DNS reagent based absorbance assay. The conditions noted are these: time 35.0 min.

Series [6] relates to N=C(N)NCCC[C@H](N)C(=O)N[C@@H](Cc1c[nH]c2ccccc12)C(=O)N[C@@H](Cc1c[nH]c2ccccc12)C(=O)O. Put plainly: Competitive inhibition of Alpha-glucosidase (unknown origin) using p-nitrophenyl-alpha-D-glucopyranoside as substrate assessed as Km pre-incubated for 10 mins followed by substrate addition and measured after 5 mins by Lineweaver-Burk plot analysis (reference value: 1.785 mM). In kind it is protein assay. As to conditions: Homo sapiens; time 15.0 min.

Series [7] has the same test system. Briefly: Competitive inhibition of Alpha-glucosidase (unknown origin) using p-nitrophenyl-alpha-D-glucopyranoside as substrate assessed as maximum velocity pre-incubated for 10 mins followed by substrate addition and measured after 5 mins by Lineweaver-Burk plot analysis (reference value: 0.802). In kind it is protein assay. As to conditions: Homo sapiens; time 15.0 min.

Series [8] deals with Mus musculus. Put plainly: Antidiabetic activity in STZ induced male Balb/c mouse model assessed as amelioration of abnormal nephron cell morphology at 10 mg/kg, po treated for 21 days. In kind it is functional, organism-based. The conditions noted are these: time 21.0 day.
The subject of series [9] is Mus musculus. Briefly: Antidiabetic activity in STZ induced male Balb/c mouse model assessed as amelioration of endocytic vacuole content at 10 mg/kg, po treated for 21 days. In kind it is functional, organism-based. As to conditions: time 21.0 day.
Series [10] deals with Mus musculus. Briefly: Antidiabetic activity in STZ induced male Balb/c mouse model assessed as amelioration of glomerular necrosis at 10 mg/kg, po treated for 21 days. In kind it is functional, organism-based. The conditions noted are these: time 21.0 day.
In series [11] the test system is Mus musculus. Put plainly: Antidiabetic activity in STZ induced male Balb/c mouse model assessed as amelioration of glomerular shrinkage at 10 mg/kg, po treated for 21 days. As to conditions: time 21.0 day. In kind it is functional, organism-based.
Series [12] deals with Mus musculus. Briefly: Antidiabetic activity in STZ induced male Balb/c mouse model assessed as amelioration of tubular necrosis at 10 mg/kg, po treated for 21 days. As to conditions: time 21.0 day. In kind it is functional, organism-based.
For series [13], the system named is Mus musculus. Put plainly: Antidiabetic activity in STZ induced male Balb/c mouse model assessed as amelioration of tubular degeneration at 10 mg/kg, po treated for 21 days. In kind it is functional, organism-based. As to conditions: time 21.0 day.

For `N=C(N)NCCC[C@H](N)C(=O)N[C@@H](Cc1c[nH]c2ccccc12)C(=O)N[C@@H](Cc1c[nH]c2ccccc12)C(=O)O` (H-Arg-Trp-Trp-OH), the result in the series with Mus musculus [1], in the series on Mus musculus [2], in the series with Mus musculus [3] and in the series on Mus musculus [4] was Active. Besides, in series [5], the inhibition result was “Active”.
Turning to “Alpha glucosidase (Homo sapiens) (from UniProt O43451+P10253+P14410+Q2M2H8)”, the Km (as a rule, the concentration of substrate that gives half-maximal velocity) in series [6] amounted to 1370 µM. Also, in series [7], the Vmax was 0.7.
In the case of `CCC1=C(C)CN(C(=O)NCCc2ccc(S(=O)(=O)NC(=O)N[C@H]3CC[C@H](C)CC3)cc2)C1=O`, the outcome in the series with Mus musculus [8], with Mus musculus [9], in the series with Mus musculus [10], with Mus musculus [11], with Mus musculus [12] and in the series with Mus musculus [13] was Active.
